Blank lines part the entries; values can stand above or below the compound they belong to.
Tested on: 282377-053-R-J1-PDC complex spheroid viability
Test: Anticancer human tumor 282377-053-R-J1-PDC patient-derived colon adenocarcinoma cell line growth inhibition [RAS]
Settings: for IC50: curve of first compound; for viability, T/C: stronger effect = lower value
Summary of the method: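 Multi-cell-type spheroids: tumor cells plus HUVEC endothelial cells and mesenchymal stem cells. RAS-pathway inhibitors were combined with targeted agents, each dosed in half-log steps down from clinical Cmax, or from 10 microM when Cmax was unknown.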

[1] = second compound 0.000949 µM, first compound 0.0316 µM
[2] = second compound 0.000949 µM, first compound 0.1 µM
[3] = second compound 0.000949 µM, first compound 0.316 µM
[4] = second compound 0.000949 µM, first compound 1 µM
[5] = second compound 0.000949 µM, first compound 3.16 µM
[6] = second compound 0.000949 µM, first compound 10 µM
[7] = second compound 0.003 µM, first compound 0.0316 µM
[8] = second compound 0.003 µM, first compound 0.1 µM
[9] = second compound 0.003 µM, first compound 0.316 µM
[10] = second compound 0.003 µM, first compound 1 µM
[11] = second compound 0.003 µM, first compound 3.16 µM
[12] = second compound 0.003 µM, first compound 10 µM
[13] = second compound 0.00949 µM, first compound 0.0316 µM
[14] = second compound 0.00949 µM, first compound 0.1 µM
[15] = second compound 0.00949 µM, first compound 0.316 µM
[16] = second compound 0.00949 µM, first compound 1 µM
[17] = second compound 0.00949 µM, first compound 3.16 µM
[18] = second compound 0.00949 µM, first compound 10 µM
[19] = second compound 0.03 µM, first compound 0.0316 µM
[20] = second compound 0.03 µM, first compound 0.1 µM
[21] = second compound 0.03 µM, first compound 0.316 µM
[22] = second compound 0.03 µM, first compound 1 µM
[23] = second compound 0.03 µM, first compound 3.16 µM
[24] = second compound 0.03 µM, first compound 10 µM
[25] = second compound 0.0949 µM, first compound 0.0316 µM
[26] = second compound 0.0949 µM, first compound 0.1 µM
[27] = second compound 0.0949 µM, first compound 0.316 µM
[28] = second compound 0.0949 µM, first compound 1 µM
[29] = second compound 0.0949 µM, first compound 3.16 µM
[30] = second compound 0.0949 µM, first compound 10 µM
[31] = second compound 0.3 µM, first compound 0.0316 µM
[32] = second compound 0.3 µM, first compound 0.1 µM
[33] = second compound 0.3 µM, first compound 0.316 µM
[34] = second compound 0.3 µM, first compound 1 µM
[35] = second compound 0.3 µM, first compound 3.16 µM
[36] = second compound 0.3 µM, first compound 10 µM
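Also: spheroids exposed to agents for seven days before readout.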
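For viability, T/C in this document: luminescence viability as percent of DMSO vehicle control wells.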

IC50 (second compound 0.000949 µM): 6.89 µM | IC50 (second compound 0.003 µM): 7.15 µM | IC50 (second compound 0.00949 µM): 7.05 µM | IC50 (second compound 0.03 µM): 6.9 µM | IC50 (second compound 0.0949 µM): 7.3 µM | IC50 (second compound 0.3 µM): 6.87 µM
SMILES: CC1(O)CCCC1n1c(=O)c(C(F)F)cc2cnc(NC3CCN(S(C)(=O)=O)CC3)nc21 (centres undefined) + CCn1c(-c2cccnc2C(C)OC)c2c3cc(ccc31)N1CCOC(CC(NC(=O)C(C(C)C)N(C)C(=O)C3(F)CCN(C(=O)C#CC(C)(C)N(C)C)CC3)C(=O)N3CCCC(N3)C(=O)OCC(C)(C)C2)C1
viability, T/C [1]: 118% | viability, T/C [2]: 112% | viability, T/C [3]: 171% | viability, T/C [4]: 144% | viability, T/C [5]: 159% | viability, T/C [6]: 6.67% | viability, T/C [7]: 129% | viability, T/C [8]: 128% | viability, T/C [9]: 140% | viability, T/C [10]: 131% | viability, T/C [11]: 218% | viability, T/C [12]: 8.84% | viability, T/C [13]: 122% | viability, T/C [14]: 97% | viability, T/C [15]: 153% | viability, T/C [16]: 156% | viability, T/C [17]: 199% | viability, T/C [18]: 8.76% | viability, T/C [19]: 105% | viability, T/C [20]: 111% | viability, T/C [21]: 153% | viability, T/C [22]: 159% | viability, T/C [23]: 165% | viability, T/C [24]: 7.79% | viability, T/C [25]: 121% | viability, T/C [26]: 120% | viability, T/C [27]: 201% | viability, T/C [28]: 181% | viability, T/C [29]: 214% | viability, T/C [30]: 5.91% | viability, T/C [31]: 111% | viability, T/C [32]: 129% | viability, T/C [33]: 146% | viability, T/C [34]: 155% | viability, T/C [35]: 158% | viability, T/C [36]: 6.46%

IC50 (second compound 0.000949 µM): 1.72 µM | IC50 (second compound 0.003 µM): 1.67 µM | IC50 (second compound 0.00949 µM): 1.76 µM | IC50 (second compound 0.03 µM): 1.85 µM | IC50 (second compound 0.0949 µM): 1.61 µM | IC50 (second compound 0.3 µM): 1.78 µM
SMILES: CCC(CC)c1cc(NC2CCC(N)C2)n2nccc2n1 (centres undefined) + CCn1c(-c2cccnc2C(C)OC)c2c3cc(ccc31)N1CCOC(CC(NC(=O)C(C(C)C)N(C)C(=O)C3(F)CCN(C(=O)C#CC(C)(C)N(C)C)CC3)C(=O)N3CCCC(N3)C(=O)OCC(C)(C)C2)C1
viability, T/C [1]: 98.1% | viability, T/C [2]: 105% | viability, T/C [3]: 81.3% | viability, T/C [4]: 87% | viability, T/C [5]: 8.86% | viability, T/C [6]: 3.59% | viability, T/C [7]: 86.3% | viability, T/C [8]: 105% | viability, T/C [9]: 79.4% | viability, T/C [10]: 81.4% | viability, T/C [11]: 10.8% | viability, T/C [12]: 3.49% | viability, T/C [13]: 114% | viability, T/C [14]: 93.9% | viability, T/C [15]: 99% | viability, T/C [16]: 89% | viability, T/C [17]: 9.93% | viability, T/C [18]: 2.98% | viability, T/C [19]: 81.2% | viability, T/C [20]: 111% | viability, T/C [21]: 102% | viability, T/C [22]: 95.3% | viability, T/C [23]: 10.7% | viability, T/C [24]: 4.2% | viability, T/C [25]: 96.8% | viability, T/C [26]: 110% | viability, T/C [27]: 89.8% | viability, T/C [28]: 77.4% | viability, T/C [29]: 11.2% | viability, T/C [30]: 4.78% | viability, T/C [31]: 112% | viability, T/C [32]: 90.2% | viability, T/C [33]: 95% | viability, T/C [34]: 87.6% | viability, T/C [35]: 12.6% | viability, T/C [36]: 4.08%

From PubChem BioAssay AID2060905 (Molecular Pharmacology Branch, DTP, NCI, 2025)
